Data: ChEMBL document CHEMBL4765274, “The development of advanced structural framework as multi-target-directed ligands for the treatment of Alzheimer's disease” (Eur J Med Chem, 2020)
The source made the active and inactive calls. The calls are words filed in the database; no cut-off is given here.

Tests used:
[1] = tested on: HT-22; assay: Activation of ubiquitin-proteasome system in mouse HT-22 cells expressing pEGFP-N1-APP assessed as increase in APP degradation by measuring reduction in GFP level at 2.5 to 20 uM after 24 hrs by Western blot analysis; assay type: cell-based; conditions: filed as activator, dose 2.5-20 µM
[2] = tested on: Mus musculus; assay: Antialzheimer activity in scopolamine-induced Kunming mouse model of memory impairment assessed as latency time at 5 mg/kg , po by step-down passive avoidance test (reference value: 125.65 sec); assay type: functional
[3] = molecular target: T1, Cholinesterase (Homo sapiens, UniProt P06276); assay: Inhibition of human serum BChE by Ellman's method; assay type: cell-free
[4] = Toxicity in Kunming mouse assessed as abnormal behavior up to 5000 mg/kg, po after 14 days; assay type: organism-based; conditions: in vivo, 336 h, time 14 day
[5] = tested on: HT-22; assay: Activation of ubiquitin-proteasome system in mouse HT-22 cells expressing pRK5-GFP-Tau assessed as increase in tau degradation by measuring reduction in GFP level after 24 hrs by fluorescence microscopic method; assay type: cell-based; conditions: filed as activator, dose 2.5-20 µM
[6] = molecular target: Acetylcholinesterase (Homo sapiens, UniProt P22303); assay: Mixed type inhibition of human AChE using acetylthiocholine as substrate by Line-weaver Burk plot analysis
[7] = Toxicity in 3 dpf zebra fish assessed as mortality at 6.25 ug/ml (reference value: 0%); design: species or system Danio rerio; conditions: zebrafish, at 6.25 µg/mL, read-out: Activity
[8] = organism: Danio rerio; assay: Antialzheimer activity in Alcl3-induced zebra fish AD model assessed as increase in motility at 0.78 ug/ml relative to control; assay type: functional; conditions: dose 0.78 µg/ml
[9] = organism: Danio rerio; assay: Antialzheimer activity in Alcl3-induced zebra fish AD model assessed as increase in motility at 0.26 ug/ml relative to control; assay type: functional; conditions: dose 0.26 µg/ml
[10] = Antioxidant activity assessed as trolox equivalent of AAPH radical scavenging activity measured every min for 4 hrs by ORAC-FL assay relative to trolox; assay type: functional
[11] = Inhibition of Cu2+-induced amyloid beta (unknown origin) aggregation after 24 hrs by TEM analysis
[12] = Toxicity in 2 dpf zebra fish assessed as slow blood flow at 25 ug/ml after 3 days relative to control; assay type: tissue-based, Danio rerio; conditions: zebrafish, 72 h, at 25 µg/mL, time 3 day
[13] = tested on: HT-22; assay: Cytotoxicity against mouse HT-22 cells assessed as reduction in cell viability after 24 hrs by MTT assay; assay type: cell-based; conditions: HT-22, 24 h
[14] = Drug metabolism in mouse blood assessed as metabolite formation by UPLC-TOF analysis; assay type: ADME, tissue-based
[15] = tested on: Mus musculus; assay: Antialzheimer activity in scopolamine-induced Kunming mouse model of memory impairment assessed as Q30 bases ratio (QC data) in brain hippocampus at 5 mg/kg , po by illumina sequencing method (reference value: 96.67%); assay type: functional
[16] = Metal chelating activity assessed as Cu2+-compound complex formation in methanol at 37.5 uM by UV-Visible spectra analysis
[17] = Drug metabolism in human liver microsomes assessed as metabolite formation by UPLC-TOF analysis; assay type: ADME, Microsome
[18] = organism: Homo sapiens; assay: Binding affinity to amyloid beta (1 to 42 residues) (unknown origin) assessed as dissociation rate constant by biolayer interferometry analysis
[19] = Metal chelating activity assessed as Cu2+-compound complex formation in water at 37.5 uM by UV-Visible spectra analysis
[20] = organism: Danio rerio; assay: Antialzheimer activity in Alcl3-induced zebra fish AD model assessed as increase dyskinesia recovery rate; assay type: functional, organism-based
[21] = Toxicity in 2 dpf zebra fish assessed as dark brown liver at 25 ug/ml after 3 days relative to control; design: species or system Danio rerio; conditions: zebrafish, 72 h, at 25 µg/mL, time 3 day
[22] = tested on: Mus musculus; assay: Antialzheimer activity in scopolamine-induced Kunming mouse model of memory impairment assessed as latency time at 20 mg/kg , po by step-down passive avoidance test (reference value: 125.65 sec); assay type: functional
[23] = Toxicity in 2 dpf zebra fish assessed as absent blood flow at 8.33 ug/ml after 3 days relative to control; assay type: tissue-based, Danio rerio; conditions: zebrafish, 72 h, at 8.33 µg/mL, time 3 day
[24] = Toxicity in 2 dpf zebra fish assessed as degenerating muscle within the somites at 25 ug/ml after 3 days relative to control; design: species or system Danio rerio; conditions: zebrafish, 72 h, at 25 µg/mL, time 3 day
[25] = Toxicity in 3 dpf zebra fish assessed as mortality at 3.125 ug/ml (reference value: 0%); design: species or system Danio rerio; conditions: zebrafish, at 3.125 µg/mL, read-out: Activity
[26] = organism: Danio rerio; assay: Antialzheimer activity in Alcl3-induced zebra fish AD model assessed as increase dyskinesia recovery rate at 0.09 ug/ml relative to control; assay type: functional; conditions: dose 0.09 µg/ml
[27] = Toxicity in 2 dpf zebra fish assessed as absent blood flow at 25 ug/ml after 3 days relative to control; assay type: tissue-based, Danio rerio; conditions: zebrafish, 72 h, at 25 µg/mL, time 3 day
[28] = molecular target: T1, Cholinesterase; assay: Reversible inhibition of human BChE assessed as residual activity at IC50 concentration relative to control
[29] = Metal chelating activity assessed as Zn2+-compound complex formation in PBS buffer at pH 7.4 at 37.5 uM by UV-Visible spectra analysis

T1 sequence (P06276 whole entry): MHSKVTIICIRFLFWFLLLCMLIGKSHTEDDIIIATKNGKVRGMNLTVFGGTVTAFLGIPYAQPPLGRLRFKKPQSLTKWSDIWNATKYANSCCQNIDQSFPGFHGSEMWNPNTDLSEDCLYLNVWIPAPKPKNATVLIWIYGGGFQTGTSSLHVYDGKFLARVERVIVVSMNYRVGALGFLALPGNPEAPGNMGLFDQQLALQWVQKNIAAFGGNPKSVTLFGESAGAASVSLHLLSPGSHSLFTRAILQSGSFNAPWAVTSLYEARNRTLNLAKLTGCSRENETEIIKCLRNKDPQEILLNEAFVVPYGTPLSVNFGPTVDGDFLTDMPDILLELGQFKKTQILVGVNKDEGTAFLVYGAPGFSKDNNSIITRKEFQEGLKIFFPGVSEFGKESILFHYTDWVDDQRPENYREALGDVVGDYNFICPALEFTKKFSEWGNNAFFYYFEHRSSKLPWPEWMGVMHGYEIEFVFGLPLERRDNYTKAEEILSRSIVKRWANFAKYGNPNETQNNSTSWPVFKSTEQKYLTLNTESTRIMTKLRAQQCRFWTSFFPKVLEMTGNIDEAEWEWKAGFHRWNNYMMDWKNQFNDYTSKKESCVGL
Sequence of Acetylcholinesterase (P22303 whole entry): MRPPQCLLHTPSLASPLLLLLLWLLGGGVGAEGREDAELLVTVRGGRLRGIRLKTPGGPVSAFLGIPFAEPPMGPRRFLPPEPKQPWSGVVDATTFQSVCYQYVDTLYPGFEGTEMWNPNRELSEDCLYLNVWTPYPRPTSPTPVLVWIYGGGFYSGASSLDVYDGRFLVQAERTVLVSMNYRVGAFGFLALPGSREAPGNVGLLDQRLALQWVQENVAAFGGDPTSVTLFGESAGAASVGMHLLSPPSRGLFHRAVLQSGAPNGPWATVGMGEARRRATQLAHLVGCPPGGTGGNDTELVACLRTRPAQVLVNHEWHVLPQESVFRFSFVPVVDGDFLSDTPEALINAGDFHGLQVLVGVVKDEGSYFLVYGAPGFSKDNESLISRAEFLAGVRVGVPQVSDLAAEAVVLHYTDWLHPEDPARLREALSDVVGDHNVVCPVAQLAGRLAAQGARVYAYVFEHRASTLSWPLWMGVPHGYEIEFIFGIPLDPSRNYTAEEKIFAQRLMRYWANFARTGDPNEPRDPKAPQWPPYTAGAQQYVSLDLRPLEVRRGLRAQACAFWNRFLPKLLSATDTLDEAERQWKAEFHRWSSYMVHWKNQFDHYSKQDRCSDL

In the case of `CCN(CCCCOc1ccc(-c2cc(=O)c3c(O)cc(OCCCCN(CC)Cc4ccccc4)cc3o2)cc1)Cc1ccccc1`, the Activity [1] is reported as “Active”, the Time [2] is reported as 261.82 s and the IC50 [3] is reported as 15.3 µM. For the same compound, the Activity [4] was “Non-Toxic”, the Activity [5] was “Dose-dependent effect” and the Ki [6] was 0.394 µM. It also gave a mortality at 6.25 ug/ml [7] of 100%, an Activity [8] of 84% and an Activity [9] of 81%. For the same compound, the fold change (FC) [10] was 1.2, the inhibition [11] was “Active” and the Activity [12] was 46.7%. For the same compound, the IC50 [13] was 39.7 µM, the Drug metabolism [14] was “Metabolite_Detected” and the Activity [15] was 96.56%. For the same compound, the Activity [16] was “Active”, the Drug metabolism [17] was “Metabolite_Detected” and the Kdiss [18] was 2.56 10^-2/s. The Activity [19] was “inactive”, the Activity [20] was “Dose-dependent effect” and the Activity [21] was 100%. It also gave a Time [22] of 245.98 s, an Activity [23] of 33.3% and an Activity [24] of 33.3%. The mortality at 3.125 ug/ml [25] was 100%, the Activity [26] was 67% and the Activity [27] was 53.3%. The Activity [28] was 42.3% and the Activity [29] was “inactive”.
